# Literature values, collected in patent publication US12716021B2, “Aqueous modified acid compositions and methods of using the same” (FLUID ENERGY GROUP LTD., priority 2019, dated 2026).
# Conditions: death in 2-3 minutes
smiles,measurement,value
"Cl [hydrogen chloride gas, hydrogen chloride]",levels at which death can occur,1300-2000 ppm
